Reference: patent US20230365537A1, “POLO LIKE KINASE 4 INHIBITORS” (ORIC Pharmaceuticals, Inc., priority 2021, published 2023)

Experiments:
human recombinant PLK4 = human recombinant PLK4 (Homo sapiens (Human), UniProt O00444); test: PLK4 Biochemical Assay (ADP-Glo); details: 0.5 nM PLK4, 8.0 µM ATP, 4.7 µM MBP, 6 hours at RT
Protocol: (§1) Activity of human recombinant PLK4 (ThermoFisher, cat #PV6396) was measured by quantification of adenosine diphosphate (ADP) using the ADP-Glo Kinase Assay Kit (Promega, cat #V9102). […] 5 µL of 1.0 nM PLK4 protein in assay buffer (50 mM HEPES, pH 7.5, 0.01% Brij-35, 0.01% BSA, 10 mM MgCl2, 1 mM EGTA, 1 mM DTT) was added to the plates. Test compounds and PLK4 were incubated for 15 minutes at room temperature (RT). […] Reactions were stopped and the remaining ATP depleted by adding 10 µL of ADP-Glo reagent (Promega, cat#V912B) and incubating for 40 minutes at RT. The simultaneous conversion of the remaining ADP to ATP and measurement of the newly synthesized ATP was achieved by addition of 20 µL Kinase Detection reagent (Promega, cat #V914B), incubation for 30 min at RT, and luminescence detection using the EnVision plate reader (PerkinElmer). […] The IC50 values reported in Table 2 were determined using four parameter non-linear regression curve fit.

[1] = biological target: human recombinant Aurora A (Homo sapiens (Human), UniProt O14965); test: Aurora A Kinase Biochemical Assay (ADP-Glo); details: ratio of Aurora A IC50 to PLK4 IC50 (selectivity)
human recombinant Aurora A, sequence (O14965 whole entry): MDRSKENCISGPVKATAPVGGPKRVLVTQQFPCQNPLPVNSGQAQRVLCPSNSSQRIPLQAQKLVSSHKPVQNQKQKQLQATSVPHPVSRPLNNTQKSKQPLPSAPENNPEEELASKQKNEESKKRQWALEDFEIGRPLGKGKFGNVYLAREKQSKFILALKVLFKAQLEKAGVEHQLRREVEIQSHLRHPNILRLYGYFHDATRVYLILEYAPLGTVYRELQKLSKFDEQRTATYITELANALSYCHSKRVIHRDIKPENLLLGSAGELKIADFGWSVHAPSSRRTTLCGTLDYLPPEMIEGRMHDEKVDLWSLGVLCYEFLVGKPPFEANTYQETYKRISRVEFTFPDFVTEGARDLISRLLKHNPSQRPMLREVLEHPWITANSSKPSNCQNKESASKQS
Protocol: as §1, with “Aurora A” for “PLK4”, “#PR5935A)” for “#PV6396)”, “5.0” for “1.0”, “Aurora A” for “PLK4 protein”, “10uL” for “10 µL”

[2] = biological target: human recombinant Aurora B (Homo sapiens (Human), UniProt Q96GD4); test: Aurora B Kinase Biochemical Assay (ADP-Glo); details: ratio of Aurora B IC50 to PLK4 IC50 (selectivity)
human recombinant Aurora B, sequence (Q96GD4 whole entry): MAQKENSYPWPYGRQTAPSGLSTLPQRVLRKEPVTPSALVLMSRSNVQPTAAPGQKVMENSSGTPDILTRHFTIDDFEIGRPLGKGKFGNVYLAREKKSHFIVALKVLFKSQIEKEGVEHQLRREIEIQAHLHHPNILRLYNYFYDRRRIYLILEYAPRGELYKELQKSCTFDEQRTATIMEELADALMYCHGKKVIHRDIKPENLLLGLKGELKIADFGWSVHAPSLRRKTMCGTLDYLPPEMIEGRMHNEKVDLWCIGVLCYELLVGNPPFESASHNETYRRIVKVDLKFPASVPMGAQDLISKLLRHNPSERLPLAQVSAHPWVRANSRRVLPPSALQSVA
Protocol: as §1, with “Aurora B” for “PLK4”, “#PR9210B)” for “#PV6396)”, “20” for “1.0”, “Aurora B” for “PLK4 protein”, “10uL” for “10 µL”

human recombinant PLK4, sequence (O00444 whole entry): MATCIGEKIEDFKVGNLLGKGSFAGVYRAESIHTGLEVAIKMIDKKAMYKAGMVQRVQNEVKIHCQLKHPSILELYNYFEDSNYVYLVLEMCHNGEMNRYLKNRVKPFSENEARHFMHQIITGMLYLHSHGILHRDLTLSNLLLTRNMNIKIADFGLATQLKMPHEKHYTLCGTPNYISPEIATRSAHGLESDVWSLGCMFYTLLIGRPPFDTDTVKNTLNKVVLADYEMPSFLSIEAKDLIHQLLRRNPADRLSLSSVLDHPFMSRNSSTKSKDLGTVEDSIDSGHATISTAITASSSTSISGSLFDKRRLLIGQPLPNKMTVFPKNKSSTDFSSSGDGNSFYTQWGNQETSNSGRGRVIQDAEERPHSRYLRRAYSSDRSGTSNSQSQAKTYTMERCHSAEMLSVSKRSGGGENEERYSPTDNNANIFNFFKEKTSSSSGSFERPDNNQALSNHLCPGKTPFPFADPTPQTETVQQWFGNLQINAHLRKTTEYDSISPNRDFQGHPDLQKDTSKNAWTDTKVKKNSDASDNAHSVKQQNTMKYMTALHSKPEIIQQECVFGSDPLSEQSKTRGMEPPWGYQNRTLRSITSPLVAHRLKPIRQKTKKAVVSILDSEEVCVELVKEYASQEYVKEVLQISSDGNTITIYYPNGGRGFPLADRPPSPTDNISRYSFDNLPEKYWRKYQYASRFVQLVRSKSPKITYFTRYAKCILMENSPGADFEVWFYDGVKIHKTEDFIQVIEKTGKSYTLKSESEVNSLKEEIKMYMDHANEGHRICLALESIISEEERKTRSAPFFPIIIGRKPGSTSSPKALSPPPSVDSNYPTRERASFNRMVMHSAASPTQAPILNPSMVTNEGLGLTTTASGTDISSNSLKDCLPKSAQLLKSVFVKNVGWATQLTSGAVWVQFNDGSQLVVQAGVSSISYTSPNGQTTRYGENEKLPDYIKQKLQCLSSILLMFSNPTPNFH

Row | IC50 (human recombinant PLK4) [µM] | [Aurora A IC50 (nM)]/[PLK4 IC50 (nM)] [1] | [Aurora B IC50 (nM)]/[PLK4 IC50 (nM)] [2] | SMILES
1 | 0.0191 | 253.4031 | 53.19 | COc1ccc2c(c1)[C@]1(C[C@H]1c1ccc3c(Nc4nc(Cl)c(OC)c(N5CCOCC5)n4)n[nH]c3c1)C(=O)N2 [Example 49, (1R,2S)-2-(3-{[4-chloro-5-methoxy-6-(morpholin-4-yl)pyrimidin-2-yl]amino}-1H-indazol-6-yl)-5′-metboxyspiro[cydopropane-1,3′-indol]-2′(1′H)-one]
2 | 0.0617 | 361.809 | 27.4923 | COc1ccc2c(c1)[C@]1(C[C@H]1c1ccc3c(Nc4cn(CCO)nc4OC)n[nH]c3c1)C(=O)N2 [Example 50, (1R,2S)-2-(3-{[1-(2-hydroxyethyl)-3-methoxy-1H-pyrazol-4-yl]amino}-1H-indazol-6-yl)-S′-methoxyspiro[cyclopropane-1,3′-indol]-2′(1′H)-one]
3 | 0.00125 | 4028.777 | 251.7986 | COc1ccc2c(c1)[C@]1(C[C@H]1c1ccc3c(Nc4ncnc(N5CCS(=O)(=O)CC5)c4Cl)n[nH]c3c1)C(=O)N2 [Example 53]
4 | 0.00125 | 3251.804 | 17.9 | COc1ccc2c(c1)[C@]1(C[C@H]1c1ccc3c(Nc4ncc(CCO)nc4OC)n[nH]c3c1)C(=O)N2 [Example 55, (lR,2S)-2-(3-{[5-(2-hydroxyethyl)-3-methoxypyrazin-2-yl]amino}-1H-indazol-6-yl)-5′-methozyspiro[cyclopropano-1,3′-indol]-2′(1′H)-one]
5 | 0.00844 | 108.4696 | 39.23 | COc1ccc2c(c1)[C@]1(C[C@H]1c1ccc3c(Nc4cc(N5CCS(=O)(=O)CC5)nc(C5CC5)n4)n[nH]c3c1)C(=O)N2 [Example 59, (1R,2S)-2-(3-((2-cyclopropyl-6-(1,1-dioxidothiomorpholino)pyrimidin-4-yl)amino)-1H-indazol-6-yl)-5′-methoxyspiro[cyclopropane-1,3′-indolin]-2′-one]
6 | 0.00736 | 69.69 | 7.855 | COc1ccc2c(c1)[C@]1(C[C@H]1c1ccc3c(Nc4cc(N5CCS(=O)(=O)CC5)nc(C)n4)n[nH]c3c1)C(=O)N2 [Example 60, (1R,2S)-2-(3-((6-(1,1-dioxidothiomorpholino)-2-methylpyrimidin-4-yl)amino)-1H-indazol-6-yl)-5′-methoxyspiro[cyclopropane-1,3′-indolin]-2′-one]
7 | 0.0722 | 56.84 | 16.69 | COc1ccc2c(c1)[C@]1(C[C@H]1c1ccc3c(Nc4cn(C)nc4C)n[nH]c3c1)C(=O)N2 [Example 63, (1R,2S)-2-{3-[(1,3-dimethyl-1H-pyrazol-4-yl)amino]-1H-indazol-6-yl}-5′-methoxyspiro[cyclopropane-1,3′-indol]-2′(1′H)-one]
8 | 0.087 | 210.2116 | 98.84 | COc1ccc2c(c1)[C@]1(C[C@H]1c1ccc3c(Nc4cn(C)nc4C(F)(F)F)n[nH]c3c1)C(=O)N2 [Example 64, (1R,2S)-5′-methoxy-2-(3-{[1-methyl-3-(trifluoromethyl)-1H-pyrazol-4-yl]amino)-1H-indazol-6-yl)spiro[cyclopropane-1,3′-indol]-2′(1′H)-one]
9 | 0.0442 | 82.48 | 5.356 | COc1ccc2c(c1)[C@]1(C[C@H]1c1ccc3c(Nc4cnn(C)c4)n[nH]c3c1)C(=O)N2 [Example 65]
10 | 2.34 | 21.37 | 7.607 | COc1ccc2c(c1)[C@]1(C[C@H]1c1ccc3c(Nc4cn(C)nc4C#N)n[nH]c3c1)C(=O)N2 [Example 66, 4-({6-[(1R,2S)-5′-methoxy-2′-oxo-1′,2′-dihydrospiro[cyclopropane-1,3′-indol]-2-yl]-1H-indazol-3-yl}amino)-1-methyl-1H-pyrazole-3-carbonitrile]
